≈ marks a conversion by molar mass, not a printed value.
How the values were obtained:
[1] = target: T1, PBP3 from Escherichia coli (K-12) (Escherichia coli, UniProt P0AD68); assay: Bocillin-FL fluorescence polarization competition binding, E. coli PBP3
T1 construct: made in house
How it was run: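 Purified PBP was preincubated with inhibitor (E. coli PBP3 1.5 μM, 30 min; P. aeruginosa PBP3 0.75 μM, A. baumannii PBP3 0.2 μM and PBP1a 1 μM, 15 min), then Bocillin-FL (0.1 μM; 0.05 μM for PBP1a) added and FP read up to 60 min. EC50 = 50% loss of bound probe.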

A. baumannii PBP1a = target: T2, A. baumannii PBP1a (Acinetobacter baumannii, UniProt A0ABX6CK30); assay: Bocillin-FL competition binding via gel filtration, A. baumannii PBP1a; settings: competition binding assay using Bocillin-FL via gel filtration; read-out: A. baumannii PBP1a Potency
T2 sequence (A0ABX6CK30 1-851): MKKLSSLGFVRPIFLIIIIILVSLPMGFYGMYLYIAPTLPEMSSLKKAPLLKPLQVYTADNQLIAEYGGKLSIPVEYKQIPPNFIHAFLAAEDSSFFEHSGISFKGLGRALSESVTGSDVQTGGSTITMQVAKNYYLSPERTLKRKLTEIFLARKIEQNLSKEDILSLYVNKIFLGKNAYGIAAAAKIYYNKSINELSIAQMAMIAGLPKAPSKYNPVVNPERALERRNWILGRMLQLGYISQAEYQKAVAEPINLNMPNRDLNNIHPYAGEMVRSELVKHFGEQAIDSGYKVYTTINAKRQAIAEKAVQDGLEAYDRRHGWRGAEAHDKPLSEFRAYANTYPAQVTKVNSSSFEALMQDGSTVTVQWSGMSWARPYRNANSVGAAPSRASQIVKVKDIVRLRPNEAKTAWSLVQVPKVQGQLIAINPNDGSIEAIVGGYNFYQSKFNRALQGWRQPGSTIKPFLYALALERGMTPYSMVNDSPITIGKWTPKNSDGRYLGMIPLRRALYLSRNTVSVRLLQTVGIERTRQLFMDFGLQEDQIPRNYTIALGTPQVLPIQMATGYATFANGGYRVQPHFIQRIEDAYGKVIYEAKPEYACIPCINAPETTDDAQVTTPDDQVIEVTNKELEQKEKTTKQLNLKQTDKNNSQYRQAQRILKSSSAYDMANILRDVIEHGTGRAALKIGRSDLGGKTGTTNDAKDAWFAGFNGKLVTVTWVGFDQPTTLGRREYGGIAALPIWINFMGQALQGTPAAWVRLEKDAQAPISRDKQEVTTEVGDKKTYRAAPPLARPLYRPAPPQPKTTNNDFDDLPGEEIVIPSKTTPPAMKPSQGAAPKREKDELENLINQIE
How it was run: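 Competitive equilibrium binding with Bocillin-FL reporter: PBP pre-incubated with inhibitor dilutions, Bocillin-FL added, 15 min incubation. Labelled enzyme isolated by size-exclusion spin plates, fluorescence measured; EC50 obtained by fitting bound fraction against inhibitor concentration with a Hill-coefficient model.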

P. aeruginosa ATCC 27853 = assay: microbe, parasite or virus in culture; format: cell-based; settings: Pseudomonas aeruginosa, ATCC27853, read-out: Minimum inhibitory concentration, P. aeruginosa ATCC 27853
P. aeruginosa CDC-0054 = assay: microbe, parasite or virus in culture; format: cell-based; settings: Pseudomonas aeruginosa, CDC0054, read-out: Minimum inhibitory concentration, P. aeruginosa CDC-0054
N. gonorrhoeae FA1090 = assay: Liquid broth MIC in Fastidious broth; settings: Neisseria gonorrhoeae, FA1090, read-out: Minimum Inhibitory Concentration, FA 1090
N. gonorrhoeae WHO Z = assay: Liquid broth MIC in Fastidious broth; settings: Neisseria gonorrhoeae, read-out: Minimum Inhibitory Concentration, WHO Z
Procedure: Additional antibacterial testing of the series was performed in 8 reference strains of N. gonorrhoeae (ATCC 49226, FA1090, MS 11, WHO G, WHO L, WHO M, WHO K, WHO X, WHO Z, WHO Q, CDC-0197). ATCC 49226, FA1090, MS11, WHO G, WHO L, and WHO M produce wild type or wild-type like PBP2. WHO K, WHO X, WHO Z, WHO Q, and CDC-0197 produce mosaic PBP2. Liquid broth-based assays were used for antibacterial testing of PBP inhibitors in Neisseria gonorrhoeae. Briefly, cryo-preserved bacterial cultures of clinical strains were streaked for isolation on Chocolate Agar (72 g/L (2×) GC Agar Base (BD #228950) and 2% (2×) Hemoglobin was autoclaved at 121° C. for 20 minutes to sterilize. Once cooled to ˜50° C. the 2×GC Agar Base and 2× Hemoglobin solutions are combined and 1% IsoVitaleX Enrichment (BD #211876) was added to the solution). Strains were incubated at 36° C. and 5% CO2 to allow growth of colonies, 24 hours before inoculum preparation. 2-fold serial dilutions of test compounds were conducted in a 96 well plate with a final volume of 75 μL per well at 2-fold the final desired concentration in Fastidious broth (Remel #R07664). For preparation of assay inoculum, a direct suspension was prepared by aseptically swabbing 10-15 colonies from agar plates into culture tubes containing 2 mL of fresh sterile saline. After the dilution plates were set up, direct suspensions were then diluted in a cuvette containing sterile saline and the optical density was measured at 600 nm. Inocula were diluted such that 75 μL of this culture in Fastidious broth results in a starting bacterial concentration of 5×10^5 CFU/mL when added to the dilution plates. The plates were incubated for ˜24 hours at 36° C. and 5% CO2.

T1 sequence (P0AD68 1-577): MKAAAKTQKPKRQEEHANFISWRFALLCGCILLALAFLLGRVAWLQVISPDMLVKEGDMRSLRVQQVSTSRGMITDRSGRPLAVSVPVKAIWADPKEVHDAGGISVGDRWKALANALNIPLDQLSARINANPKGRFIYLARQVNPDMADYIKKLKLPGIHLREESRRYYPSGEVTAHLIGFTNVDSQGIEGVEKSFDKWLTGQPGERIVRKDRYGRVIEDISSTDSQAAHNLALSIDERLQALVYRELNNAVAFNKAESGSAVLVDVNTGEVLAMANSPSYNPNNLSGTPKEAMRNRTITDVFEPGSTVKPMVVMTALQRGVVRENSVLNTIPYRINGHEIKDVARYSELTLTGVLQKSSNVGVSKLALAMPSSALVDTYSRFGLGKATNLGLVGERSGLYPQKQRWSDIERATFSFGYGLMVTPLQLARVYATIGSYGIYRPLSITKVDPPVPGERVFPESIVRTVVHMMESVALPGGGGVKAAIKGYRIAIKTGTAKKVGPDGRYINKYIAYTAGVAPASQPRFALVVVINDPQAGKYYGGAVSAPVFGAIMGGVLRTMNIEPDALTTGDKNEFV

Row | Compound | EC50 [1] | EC50 (A. baumannii PBP1a) | MIC (P. aeruginosa ATCC 27853) | MIC (P. aeruginosa CDC-0054) | MIC (N. gonorrhoeae FA1090) | MIC (N. gonorrhoeae WHO Z)
1 | O=C(NCCCN1CCN(C(=O)N[C@@H](C(=O)N[C@H]2Cc3ccc(F)c(C(=O)O)c3OB2O)c2cc(F)c(O)c(O)c2Cl)C(=O)C1=O)c1cccc(O)c1Cl [Example 303, (R)-3-((R)-2-(4-(3-(2-chloro-3-hydroxybenzamido)propyl)-2,3-dioxopiperazine-1-carboxamido)-2-(2-chloro-5-fluoro-3,4-dihydroxyphenyl)acetamido)-7-fluoro-2-hydroxy-3,4-dihydro-2H-benzo[e][1,2]oxaborinine-8-carboxylic acid] | < 10 µM | < 10 µM | < 1 µg/mL | < 1 µg/mL | 1 to 2 µg/mL (≈ 1.26 to 2.52 µM) | 16 to 32 µg/mL (≈ 20.1 to 40.3 µM)
2 | O=C(NCCN1CCN(C(=O)N[C@@H](C(=O)N[C@H]2Cc3ccc(F)c(C(=O)O)c3OB2O)c2cc(F)c(O)c(O)c2Cl)C1=O)Nc1ccc(O)cc1 [Example 279, (R)-3-((R)-2-(2-chloro-5-fluoro-3,4-dihydroxyphenyl)-2-(3-(2-(3-(4-hydroxyphenyl)ureido)ethyl)-2-oxoimidazolidine-1-carboxamido)acetamido)-7-fluoro-2-hydroxy-3,4-dihydro-2H-benzo[e][1,2]oxaborinine-8-carboxylic acid] | < 10 µM | < 10 µM | 2 to 4 µg/mL (≈ 2.73 to 5.46 µM) | < 1 µg/mL | < 1 µg/mL | 4 to 8 µg/mL (≈ 5.46 to 10.9 µM)
3 | O=C(NCCS(=O)(=O)N1CCN(C(=O)N[C@@H](C(=O)N[C@H]2Cc3ccc(F)c(C(=O)O)c3OB2O)c2cc(F)c(O)c(O)c2Cl)C1=O)c1ccc(O)cc1 [Example 287, (R)-3-((R)-2-(2-chloro-5-fluoro-3,4-dihydroxyphenyl)-2-(3-((2-(4-hydroxybenzamido)ethyl)sulfonyl)-2-oxoimidazolidine-1-carboxamido)acetamido)-7-fluoro-2-hydroxy-3,4-dihydro-2H-benzo[e][1,2]oxaborinine-8-carboxylic acid] | < 10 µM | 10 to 50 µM | 2 to 4 µg/mL (≈ 2.56 to 5.12 µM) | 2 to 4 µg/mL (≈ 2.56 to 5.12 µM) | 1 to 2 µg/mL (≈ 1.28 to 2.56 µM) | 4 to 8 µg/mL (≈ 5.12 to 10.2 µM)
4 | O=C(NCCCN1CCN(C(=O)NC(C(=O)N[C@H]2Cc3ccc(F)c(C(=O)O)c3OB2O)c2cc(F)c(O)c(O)c2Cl)C(=O)C1=O)c1ccc(O)c(F)c1 (stereo partly drawn) [Example 304, (3R)-3-(2-(2-chloro-5-fluoro-3,4-dihydroxyphenyl)-2-(4-(3-(3-fluoro-4-hydroxybenzamido)propyl)-2,3-dioxopiperazine-1-carboxamido)acetamido)-7-fluoro-2-hydroxy-3,4-dihydro-2H-benzo[e][1,2]oxaborinine-8-carboxylic acid] | < 10 µM | < 10 µM | 2 to 4 µg/mL (≈ 2.57 to 5.14 µM) | 2 to 4 µg/mL (≈ 2.57 to 5.14 µM) | 1 to 2 µg/mL (≈ 1.29 to 2.57 µM) | > 64 µg/mL
5 | Cc1cc(C(=O)NCCCN2CCN(C(=O)N[C@@H](C(=O)N[C@H]3Cc4ccc(F)c(C(=O)O)c4OB3O)c3cc(F)c(O)c(O)c3Cl)C(=O)C2=O)ccn1 [Example 298, (R)-3-((R)-2-(2-chloro-5-fluoro-3,4-dihydroxyphenyl)-2-(4-(3-(2-methylisonicotinamido)propyl)-2,3-dioxopiperazine-1-carboxamido)acetamido)-7-fluoro-2-hydroxy-3,4-dihydro-2H-benzo[e][1,2]oxaborinine-8-carboxylic acid] | < 10 µM | 10 to 50 µM | 2 to 4 µg/mL (≈ 2.64 to 5.27 µM) | < 1 µg/mL | 1 to 2 µg/mL (≈ 1.32 to 2.64 µM) | > 64 µg/mL
6 | O=C(NCCCN1CCN(C(=O)N[C@@H](C(=O)N[C@H]2Cc3ccc(F)c(C(=O)O)c3OB2O)c2cc(F)c(O)c(O)c2Cl)C1=O)Nc1ccc(O)cc1 [Example 284, (R)-3-((R)-2-(2-chloro-5-fluoro-3,4-dihydroxyphenyl)-2-(3-(3-(3-(4-hydroxyphenyl)ureido)propyl)-2-oxoimidazolidine-1-carboxamido)acetamido)-7-fluoro-2-hydroxy-3,4-dihydro-2H-benzo[e][1,2]oxaborinine-8-carboxylic acid] | 10 to 50 µM | < 10 µM | 2 to 4 µg/mL (≈ 2.68 to 5.36 µM) | < 1 µg/mL | 1 to 2 µg/mL (≈ 1.34 to 2.68 µM) | 4 to 8 µg/mL (≈ 5.36 to 10.7 µM)
7 | O=C(NCCCN1CCN(C(=O)NC(C(=O)N[C@H]2Cc3ccc(F)c(C(=O)O)c3OB2O)c2cc(F)c(O)c(O)c2Cl)C(=O)C1=O)c1ccc(O)cc1O (stereo partly drawn) [Example 307, (3R)-3-(2-(2-chloro-5-fluoro-3,4-dihydroxyphenyl)-2-(4-(3-(2,4-dihydroxybenzamido)propyl)-2,3-dioxopiperazine-1-carboxamido)acetamido)-7-fluoro-2-hydroxy-3,4-dihydro-2H-benzo[e][1,2]oxaborinine-8-carboxylic acid] | < 10 µM | < 10 µM | 2 to 4 µg/mL (≈ 2.58 to 5.16 µM) | 2 to 4 µg/mL (≈ 2.58 to 5.16 µM) | 1 to 2 µg/mL (≈ 1.29 to 2.58 µM) | > 64 µg/mL
8 | O=C(NCCCS(=O)(=O)N1CCN(C(=O)NC(C(=O)N[C@H]2Cc3ccc(F)c(C(=O)O)c3OB2O)c2cc(F)c(O)c(O)c2Cl)C1=O)Nc1cccc(O)c1 (stereo partly drawn) [Example 277, (3R)-3-(2-(2-chloro-5-fluoro-3,4-dihydroxyphenyl)-2-(3-((3-(3-(3-hydroxyphenyl)ureido)propyl)sulfonyl)-2-oxoimidazolidine-1-carboxamido)acetamido)-7-fluoro-2-hydroxy-3,4-dihydro-2H-benzo[e][1,2]oxaborinine-8-carboxylic acid] | < 10 µM | < 10 µM | 2 to 4 µg/mL (≈ 2.47 to 4.93 µM) | 2 to 4 µg/mL (≈ 2.47 to 4.93 µM) | 1 to 2 µg/mL (≈ 1.23 to 2.47 µM) | 16 to 32 µg/mL (≈ 19.7 to 39.5 µM)
9 | O=C(NCCS(=O)(=O)N1CCN(C(=O)NC(C(=O)N[C@H]2Cc3ccc(F)c(C(=O)O)c3OB2O)c2cc(F)c(O)c(O)c2Cl)C1=O)Nc1ccc(O)cc1 (stereo partly drawn) [Example 289, (3R)-3-(2-(2-chloro-5-fluoro-3,4-dihydroxyphenyl)-2-(3-((2-(3-(4-hydroxyphenyl)ureido)ethyl)sulfonyl)-2-oxoimidazolidine-1-carboxamido)acetamido)-7-fluoro-2-hydroxy-3,4-dihydro-2H-benzo[e][1,2]oxaborinine-8-carboxylic acid] | < 10 µM | < 10 µM | 2 to 4 µg/mL (≈ 2.51 to 5.02 µM) | 2 to 4 µg/mL (≈ 2.51 to 5.02 µM) | 1 to 2 µg/mL (≈ 1.25 to 2.51 µM) | 4 to 8 µg/mL (≈ 5.02 to 10 µM)

Reference: US20240270762A1, “PENICILLIN-BINDING PROTEIN INHIBITORS” (priority 2021, published 2024)
